Patent publication US20170100489A1, “POLYETHYLENE GLYCOL-MODIFIED INTEGRIN BLOCKER HM-3 AND USE THEREOF” (HANMEI XU, priority 2012, published 2017)
Like-named read-outs stand apart in the source and are kept apart here. Where a SMILES comes first, the peptide text is derived from it. Where no end group is shown, it is not given here. mPEG‑SC20k = methoxy polyethylene glycol-succinimidyl-carbonate, 20000 Da

Key:
[1] = tested on: human testicular cancer 5637 xenograft tumors; experiment: Tumor growth inhibition, 5637 xenograft
Procedure: (§1) Human testicular cancer 5637 cell lines in logarithmic growth phase were picked, and made into 5×10^7/ml cell suspension of under sterile conditions, and then 0.1 ml suspension was inoculated subcutaneously at the right armpit of nude mice. Tumor diameter was measured with a vernier caliper. The animals which had tumors with a size of 100-200 mm^3 were randomly divided into groups. The effect of polypeptide on anti-tumor was dynamically observed through the method of measuring tumor diameter. The times of measuring tumor diameter were once 2 days, and meantime, weighed mice. The mice in experimental group were infused polypeptide through tail vein. […] After administration, all mice were sacrificed. Stripped the tumors and weighed.

[2] = tested on: human ovarian cancer SK-OV-3 xenograft tumors; experiment: Tumor growth inhibition, SK-OV-3 xenograft
Procedure: Human ovarian cancer SK-OV-3 cell lines in logarithmic growth phase were picked, and made into 5×10^7/ml cell suspension of under sterile conditions, and then 0.1 ml suspension was inoculated subcutaneously at the right armpit of nude mice. Tumor diameter was measured with a vernier caliper. The animals which had tumors with a size of 100-200 mm^3 were randomly divided into groups. The effect of polypeptide on anti-tumor was dynamically observed through the method of measuring tumor diameter. The times of measuring tumor diameter were once 2 days, and meantime, weighed mice. The mice in experimental group were infused polypeptide through tail vein. The mice in the placebo group were injected saline with the same volume, once 1 day; Cisplatin group: 10 mg/kg, once 1 week; Endostar group: 2.5 mg/kg, once 1 day; The groups of high, intermediate and low polypeptide: 6, 3, 1.5 mg/kg, respectively, once 1 day. After administration, all mice were sacrificed. Stripped the tumors and weighed.

[3] = tested on: human prostate cancer DU-145 xenograft tumors; experiment: Tumor growth inhibition, DU-145 xenograft
Procedure: Human prostate cancer DU-145 cell lines in logarithmic growth phase were picked, and made into 5×10^7/ml cell suspension of under sterile conditions, and then 0.1 ml suspension was inoculated subcutaneously at the right armpit of nude mice. Tumor diameter was measured with a vernier caliper. The animals which had tumors with a size of 100-200 mm^3 were randomly divided into groups. The effect of polypeptide on anti-tumor was dynamically observed through the method of measuring tumor diameter. The times of measuring tumor diameter were once 2 days, and meantime, weighed mice. The mice in experimental group were infused polypeptide through tail vein. The mice in the placebo group were injected saline with the same volume, once 1 day; Cisplatin group: 10 mg/kg, once 1 week; Endostar group: 2.5 mg/kg, once 1 day; The groups of high, intermediate and low polypeptide: 6, 3, 1.5 mg/kg, respectively, once 1 day. After administration, all mice were sacrificed. Stripped the tumors and weighed.

[4] = tested on: human nasopharyngeal cancer CNE xenograft tumors; experiment: Tumor growth inhibition, CNE xenograft
Procedure: (§2) Picked the tumor tissue of vigorous growth and was cut into pieces of about 1.5 mm^3. Under sterile conditions, the tumor tissue was inoculated subcutaneously on the right of nude mice. Tumor diameter was measured with a vernier caliper. The animals which had tumors with a size of 100-200 mm^3 were randomly divided into groups. The effect of polypeptide on anti-tumor was dynamically observed through the method of measuring tumor diameter. The times of measuring tumor diameter were once 2 days, and meantime, weighed mice. The mice in experimental group were infused polypeptide through tail vein, once 3 days. The mice in the placebo group were injected saline with the same volume. Tumor volume formula:
a, b respectively represent the length and width. According to the result of measurement, calculate the relative tumor volume. Evaluation of antitumor activity is relative tumor proliferation rate T/C(%). The formula is as follows: T/C(%)^−TRTV/CRTV×100%

[5] = tested on: sarcoma HT-1080 xenograft tumors; experiment: Tumor growth inhibition, HT-1080 xenograft
Procedure: Tumor diameter was measured with a vernier caliper. […] After administration, all mice were sacrificed. Stripped the tumors and weighed.

[6] = tested on: human bladder cancer HT1376 xenograft tumors; experiment: Tumor growth inhibition, HT1376 xenograft
Procedure: Human bladder cancer HT1376 cell lines in logarithmic growth phase were picked, and made into 5×10^7/ml cell suspension of under sterile conditions, and then 0.1 ml suspension was inoculated subcutaneously at the right armpit of nude mice. Tumor diameter was measured with a vernier caliper. The animals which had tumors with a size of 100-200 mm^3 were randomly divided into groups. The effect of polypeptide on anti-tumor was dynamically observed through the method of measuring tumor diameter. The times of measuring tumor diameter were once 2 days, and meantime, weighed mice. The mice in experimental group were infused polypeptide through tail vein. The mice in the placebo group were injected saline with the same volume, once 1 day; Taxol group: 10 mg/kg, once 1 week; Endostar group: 2.5 mg/kg, once 1 day; The groups of high, intermediate and low polypeptide: 6, 3, 1.5 mg/kg, respectively, once 1 day. After administration, all mice were sacrificed. Stripped the tumors and weighed.

[7] = tested on: human breast cancer MDA-MB-231 xenograft tumors; experiment: Tumor growth inhibition, MDA-MB-231 xenograft
Procedure: Picked the tumor tissue of vigorous growth and was cut into pieces of about 1.5 mm^3. Under sterile conditions, the tumor tissue was inoculated subcutaneously on the right of nude mice. Tumor diameter was measured with a vernier caliper. The animals which had tumors with a size of 100-200 mm^3 were randomly divided into groups. The effect of polypeptide on anti-tumor was dynamically observed through the method of measuring tumor diameter. The times of measuring tumor diameter were once 2 days, and meantime, weighed mice. The mice in experimental group were infused polypeptide through tail vein, once 3 days. The mice in the placebo group were injected saline with the same volume. Tumor volume formula: TV=0.52×a×b^2
(§3) a, b respectively represent the length and width. According to the result of measurement, calculate the relative tumor volume. Evaluation of antitumor activity is relative tumor proliferation rate T/C(%). The formula is as follows: T/C(%)^=TRTV/CRTV×100%
(§4) TRTV: Treatment group RTV; CRTV: negative control group RTV

[8] = tested on: human cervical cancer HeLa xenograft tumors; experiment: Tumor growth inhibition, HeLa xenograft
Procedure: Human cervical cancer HeLa cell lines in logarithmic growth phase were picked, and made into 5×10^7/ml cell suspension of under sterile conditions, and then 0.1 ml suspension was inoculated subcutaneously at the right armpit of nude mice. Tumor diameter was measured with a vernier caliper. The animals which had tumors with a size of 100-200 mm^3 were randomly divided into groups. The effect of polypeptide on anti-tumor was dynamically observed through the method of measuring tumor diameter. The times of measuring tumor diameter were once 2 days, and meantime, weighed mice. The mice in experimental group were infused polypeptide through tail vein. The mice in the placebo group were injected saline with the same volume, once 1 day; Taxol group: 10 mg/kg, once 1 week; Endostar group: 2.5 mg/kg, once 1 day; The groups of high, intermediate and low polypeptide: 6, 3, 1.5 mg/kg, respectively, once 1 day. After administration, all mice were sacrificed. Stripped the tumors and weighed.

[9] = tested on: human cancer 5637 xenograft tumors; experiment: Tumor growth inhibition, 5637 xenograft
Procedure: as §1

[10] = tested on: human gastric cancer MGC803 xenograft tumors; experiment: Tumor growth inhibition, MGC803 xenograft
Procedure: as §2, §3, §4

[11] = tested on: human kidney cancer A498 xenograft tumors; experiment: Tumor growth inhibition, A498 xenograft
Procedure: Human kidney cancer A498 cell lines in logarithmic growth phase were picked and made into 5×10^7/ml cell suspension of under sterile conditions, and then 0.1 ml suspension was inoculated subcutaneously at the right armpit of nude mice. Tumor diameter was measured with a vernier caliper. The animals which had tumors with a size of 100-200 mm^3 were randomly divided into groups. The effect of polypeptide on anti-tumor was dynamically observed through the method of measuring tumor diameter. The times of measuring tumor diameter were once 2 days, and meantime, weighed mice. The mice in experimental group were infused polypeptide through tail vein. The mice in the placebo group were injected saline with the same volume, once 1 day; Taxol group: 10 mg/kg, once 1 week; Endostar group: 2.5 mg/kg, once 1 day; The groups of high, intermediate and low polypeptide: 6, 3, 1.5 mg/kg, respectively, once 1 day. After administration, all mice were sacrificed. Stripped the tumors and weighed.

[12] = Pharmacokinetics of mPEG-SC20k-HM-3 and HM-3 in rats (plasma concentration by ELISA)
Procedure: SD rats were randomly divided into six groups with the same number for male and female. Take three groups were administered intravenously integrin antagonist polypeptide with a high dose of 52 mg/kg (equivalent to HM-3 4.2 mg/kg), an intermediate dose of 26 mg/kg (equivalent to HM-3 2.1 mg/kg), a low-dose of 13 mg/kg (equivalent to HM-3 1.05 mg/kg). The other 3 groups were injected HM-3 with a high dose of 4.2 mg/kg, an intermediate dose of 2.1 mg/kg, a low doses of 1.05 mg/kg. Collected whole blood 0.5 ml once from the orbital venous plexus after 0.5 h, 1 h, 2 h, 3 h, 6 h, 12 h, 24 h, 48 h, 72 h, 96 h, 108 h, 132 h of drug administration, and applied heparin to get the effect of anti-coagulation. 12000 rpm/2 min centrifuged plasma. Draw supernatant 200 μl and 80° C. preheated PBS (0.05 M pH7.4) buffer 600 μl and mixed. Bath in the 80° C. water for 30 min. Centrifuged 2 min at 12000 rpm, and collected the supernatant, and stored in the condition of −20° C. Dissolved at room temperature, measured integrin antagonist peptide plasma concentration by ELISA.

[13] = tested on: human lung cancer H460 xenograft tumors; experiment: Tumor growth inhibition, H460 xenograft
Procedure: as §2, §3, §4

[14] = tested on: human thyroid cancer SW-579 xenograft tumors; experiment: Tumor growth inhibition, SW-579 xenograft; details: for Final weight / Rate of inhibiting tumors / Tumor weight: Once 1 day
Procedure: as §2, §3

[15] = tested on: human pancreatic cancer SW-1990 xenograft tumors; experiment: Tumor growth inhibition, SW-1990 xenograft
Procedure: Picked the tumor tissue of vigorous growth and was cut into pieces of about 1.5 mm^3. Under sterile conditions, the tumor tissue was inoculated subcutaneously on the right of nude mice. Tumor diameter was measured with a Vernier caliper. The animals which had tumors with a size of 100-200 mm^3 were randomly divided into groups. The effect of polypeptide on anti-tumor was dynamically observed through the method of measuring tumor diameter. The times of measuring tumor diameter were once 2 days, and meantime, weighed mice. The mice in experimental group were infused polypeptide through tail vein, once 3 days. The mice in the placebo group were injected saline with the same volume.
as §3
TRTV:Treatment group RTV; CRTV: negative control group RTV

[16] = tested on: human endometrial cancer HHUA xenograft tumors; experiment: Tumor growth inhibition, HHUA xenograft
Procedure: Human endometrial cancer HHUA cell lines in logarithmic growth phase were picked, and made into 5×10^7/ml cell suspension of under sterile conditions, and then 0.1 ml suspension was inoculated subcutaneously at the right armpit of nude mice. Tumor diameter was measured with a vernier caliper. The animals which had tumors with a size of 100-200 mm^3 were randomly divided into groups. The effect of polypeptide on anti-tumor was dynamically observed through the method of measuring tumor diameter. The times of measuring tumor diameter were once 2 days, and meantime, weighed mice. The mice in experimental group were infused polypeptide through tail vein. The mice in the placebo group were injected saline with the same volume, once 1 day; Taxol group: 10 mg/kg, once 1 week; Endostar group: 2.5 mg/kg, once 1 day; The groups of high, intermediate and low polypeptide: 6, 3, 1.5 mg/kg, respectively, once 1 day. After administration, all mice were sacrificed. Stripped the tumors and weighed.

[17] = tested on: human colon cancer HT-29 xenograft tumors; experiment: Tumor growth inhibition, HT-29 xenograft
Procedure: Human colon cancer HT-29 cell lines in logarithmic growth phase were picked, and made into 5×10^7/ml cell suspension of under sterile conditions, and then 0.1 ml suspension was inoculated subcutaneously at the right armpit of nude mice. Tumor diameter was measured with a vernier caliper. The animals which had tumors with a size of 100-200 mm^3 were randomly divided into groups. The effect of polypeptide on anti-tumor was dynamically observed through the method of measuring tumor diameter. The times of measuring tumor diameter were once 2 days, and meantime, weighed mice. The mice in experimental group were infused polypeptide through tail vein. The mice in the placebo group were injected saline with the same volume, once 1 day; Taxol group: 10 mg/kg, once 1 week; Endostar group: 2.5 mg/kg, once 1 day; The groups of high, intermediate and low polypeptide: 6, 3, 1.5 mg/kg, respectively, once 1 day. After administration, all mice were sacrificed. Stripped the tumors and weighed.

[18] = tested on: human esophageal cancer Ec109 xenograft tumors; type: in vivo, nude mice
Procedure: Tumor diameter was measured with a vernier caliper. […] Tumor volume formula: […]
a, b respectively represent the length and width. […] The formula is as follows: […]
TRTV: Treatment Group RTV; CRTV: Negative Control Group RTV

[19] = Immunogenicity assay, antibody titers in serum by ELISA; details: 3.0 mg/kg iv once a day, 8 weeks; FIG. 2
Procedure: BALB/c white mice were randomly divided into 2 groups, and the same number of male and female. 36 mg/kg mPEG-SC20k-HM-3 and 3.0 mg/kg HM-3 were administrated intravenously through tail vein, respectively, lasting 8 weeks, and collected blood from the orbital venous plexus once a week during 1-12 weeks. Centrifuged 2 min at 12000 rpm, collected the supernatant, and stored in the condition of −20° C. Dissolved at room temperature, 0.1 ml was used to measure antibody titers in serum by ELISA.
Administration: once a day, 6 rats (male, 3; female, 3)
Administration: once two days, 6 rats (male, 3; female, 3)

[20] = tested on: human gallbladder cancer GBC-SD xenograft tumors; experiment: Tumor growth inhibition, GBC-SD xenograft
Procedure: Human gallbladder cancer GBC-SD cell lines in logarithmic growth phase were picked and made into 5×10^7/ml cell suspension of under sterile conditions, and then 0.1 ml suspension was inoculated subcutaneously at the right armpit of nude mice. Tumor diameter was measured with a vernier caliper. The animals which had tumors with a size of 100-200 mm^3 were randomly divided into groups. The effect of polypeptide on anti-tumor was dynamically observed through the method of measuring tumor diameter. The times of measuring tumor diameter were once 2 days, and meantime, weighed mice. The mice in experimental group were infused polypeptide through tail vein. The mice in the placebo group were injected saline with the same volume, once 1 day; Taxol group: 10 mg/kg, once 1 week; Endostar group: 2.5 mg/kg, once 1 day; The groups of high, intermediate and low polypeptide: 6, 3, 1.5 mg/kg, respectively, once 1 day. After administration, all mice were sacrificed. Stripped the tumors and weighed.

integrin α5β1 = target: T1, integrin α5β1 (human, UniProt P08648 42-1049; P05556 21-798); experiment: flow cytometry, FITC-labeled peptide on Bel-7402 and MCF-7 cells pre-incubated with function-blocking anti-integrin antibodies
T1 construct: whole, on cells; Endogenous integrin on Bel-7402 and MCF-7 cells; also called alpha 5 beta 1
T1 sequence (P08648 42-1049, chain 1 of 2): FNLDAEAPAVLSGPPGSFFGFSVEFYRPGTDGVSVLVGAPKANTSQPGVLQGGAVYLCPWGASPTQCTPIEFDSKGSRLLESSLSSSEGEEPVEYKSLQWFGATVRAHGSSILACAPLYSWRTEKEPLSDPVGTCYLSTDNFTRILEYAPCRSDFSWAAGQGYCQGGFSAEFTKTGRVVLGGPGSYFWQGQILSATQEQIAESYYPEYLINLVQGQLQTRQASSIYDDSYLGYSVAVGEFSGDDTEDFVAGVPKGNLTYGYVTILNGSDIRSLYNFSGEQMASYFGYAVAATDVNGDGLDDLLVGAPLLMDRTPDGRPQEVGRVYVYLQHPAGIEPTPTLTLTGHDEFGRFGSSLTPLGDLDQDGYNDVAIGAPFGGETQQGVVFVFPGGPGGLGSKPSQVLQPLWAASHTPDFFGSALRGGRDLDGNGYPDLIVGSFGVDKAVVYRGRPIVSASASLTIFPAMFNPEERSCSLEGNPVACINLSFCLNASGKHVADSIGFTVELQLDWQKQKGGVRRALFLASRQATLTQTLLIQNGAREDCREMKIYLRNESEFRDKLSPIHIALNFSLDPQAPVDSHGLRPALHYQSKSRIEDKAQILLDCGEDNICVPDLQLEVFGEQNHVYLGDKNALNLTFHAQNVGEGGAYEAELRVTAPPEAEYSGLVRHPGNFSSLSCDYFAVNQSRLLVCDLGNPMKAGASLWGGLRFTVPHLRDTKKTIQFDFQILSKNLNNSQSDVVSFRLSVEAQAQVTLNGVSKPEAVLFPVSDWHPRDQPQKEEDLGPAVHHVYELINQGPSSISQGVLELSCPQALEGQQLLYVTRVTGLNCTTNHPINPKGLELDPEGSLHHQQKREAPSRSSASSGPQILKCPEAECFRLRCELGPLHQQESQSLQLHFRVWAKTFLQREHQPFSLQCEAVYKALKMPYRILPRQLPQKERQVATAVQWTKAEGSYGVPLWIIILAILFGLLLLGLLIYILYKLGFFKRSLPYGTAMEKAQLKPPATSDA
T1 sequence (P05556 21-798, chain 2 of 2): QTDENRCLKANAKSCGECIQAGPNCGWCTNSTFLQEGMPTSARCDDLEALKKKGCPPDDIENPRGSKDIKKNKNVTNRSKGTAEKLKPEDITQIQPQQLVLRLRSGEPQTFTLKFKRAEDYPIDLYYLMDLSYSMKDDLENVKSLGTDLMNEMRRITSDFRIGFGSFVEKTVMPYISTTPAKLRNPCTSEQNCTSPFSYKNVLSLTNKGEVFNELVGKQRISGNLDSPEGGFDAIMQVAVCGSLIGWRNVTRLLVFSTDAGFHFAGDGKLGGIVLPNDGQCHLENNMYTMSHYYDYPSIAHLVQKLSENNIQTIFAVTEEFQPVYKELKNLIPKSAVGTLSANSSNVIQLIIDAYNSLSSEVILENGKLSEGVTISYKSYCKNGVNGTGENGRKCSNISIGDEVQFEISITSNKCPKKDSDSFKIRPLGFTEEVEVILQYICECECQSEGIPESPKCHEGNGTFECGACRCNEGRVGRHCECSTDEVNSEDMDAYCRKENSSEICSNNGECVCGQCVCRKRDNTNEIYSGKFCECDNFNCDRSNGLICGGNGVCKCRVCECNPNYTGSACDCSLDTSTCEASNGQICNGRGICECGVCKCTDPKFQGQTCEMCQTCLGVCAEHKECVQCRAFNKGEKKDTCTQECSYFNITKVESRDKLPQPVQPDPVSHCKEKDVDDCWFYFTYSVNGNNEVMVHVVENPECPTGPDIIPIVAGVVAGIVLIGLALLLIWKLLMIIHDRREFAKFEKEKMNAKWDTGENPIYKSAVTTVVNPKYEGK

integrin ανβ3 = target: T2, integrin ανβ3 (human, UniProt P06756 31-1048; P05106 27-788); experiment: as above
T2 construct: whole, on cells; Endogenous integrin on Bel-7402 and MCF-7 cells; also called alpha v beta 3
T2 sequence (P06756 31-1048, chain 1 of 2): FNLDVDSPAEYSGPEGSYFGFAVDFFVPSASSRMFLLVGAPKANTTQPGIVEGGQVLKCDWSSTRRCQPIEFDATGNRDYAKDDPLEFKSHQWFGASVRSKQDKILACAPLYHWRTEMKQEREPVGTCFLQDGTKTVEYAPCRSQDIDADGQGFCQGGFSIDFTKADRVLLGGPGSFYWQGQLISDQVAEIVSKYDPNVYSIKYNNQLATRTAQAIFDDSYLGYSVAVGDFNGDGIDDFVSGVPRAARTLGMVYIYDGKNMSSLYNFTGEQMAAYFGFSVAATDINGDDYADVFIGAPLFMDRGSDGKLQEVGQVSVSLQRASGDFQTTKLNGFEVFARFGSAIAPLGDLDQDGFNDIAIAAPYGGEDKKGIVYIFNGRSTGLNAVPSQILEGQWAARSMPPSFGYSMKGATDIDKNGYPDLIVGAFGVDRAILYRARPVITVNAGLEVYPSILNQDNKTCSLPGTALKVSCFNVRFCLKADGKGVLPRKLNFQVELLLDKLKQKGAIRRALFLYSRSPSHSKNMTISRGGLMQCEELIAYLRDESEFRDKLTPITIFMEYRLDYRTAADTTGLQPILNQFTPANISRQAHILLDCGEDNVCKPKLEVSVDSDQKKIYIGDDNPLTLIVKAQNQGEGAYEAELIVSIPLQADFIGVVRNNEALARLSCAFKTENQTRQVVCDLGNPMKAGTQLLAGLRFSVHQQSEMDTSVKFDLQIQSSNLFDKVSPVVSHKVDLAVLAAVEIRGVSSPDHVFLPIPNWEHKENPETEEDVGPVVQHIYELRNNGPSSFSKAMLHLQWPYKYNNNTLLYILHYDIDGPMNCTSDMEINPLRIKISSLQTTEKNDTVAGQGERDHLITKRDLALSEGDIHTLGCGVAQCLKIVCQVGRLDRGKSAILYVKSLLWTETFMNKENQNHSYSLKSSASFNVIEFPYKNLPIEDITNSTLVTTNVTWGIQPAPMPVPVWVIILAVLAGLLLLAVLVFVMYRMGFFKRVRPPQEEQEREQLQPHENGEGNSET
T2 sequence (P05106 27-788, chain 2 of 2): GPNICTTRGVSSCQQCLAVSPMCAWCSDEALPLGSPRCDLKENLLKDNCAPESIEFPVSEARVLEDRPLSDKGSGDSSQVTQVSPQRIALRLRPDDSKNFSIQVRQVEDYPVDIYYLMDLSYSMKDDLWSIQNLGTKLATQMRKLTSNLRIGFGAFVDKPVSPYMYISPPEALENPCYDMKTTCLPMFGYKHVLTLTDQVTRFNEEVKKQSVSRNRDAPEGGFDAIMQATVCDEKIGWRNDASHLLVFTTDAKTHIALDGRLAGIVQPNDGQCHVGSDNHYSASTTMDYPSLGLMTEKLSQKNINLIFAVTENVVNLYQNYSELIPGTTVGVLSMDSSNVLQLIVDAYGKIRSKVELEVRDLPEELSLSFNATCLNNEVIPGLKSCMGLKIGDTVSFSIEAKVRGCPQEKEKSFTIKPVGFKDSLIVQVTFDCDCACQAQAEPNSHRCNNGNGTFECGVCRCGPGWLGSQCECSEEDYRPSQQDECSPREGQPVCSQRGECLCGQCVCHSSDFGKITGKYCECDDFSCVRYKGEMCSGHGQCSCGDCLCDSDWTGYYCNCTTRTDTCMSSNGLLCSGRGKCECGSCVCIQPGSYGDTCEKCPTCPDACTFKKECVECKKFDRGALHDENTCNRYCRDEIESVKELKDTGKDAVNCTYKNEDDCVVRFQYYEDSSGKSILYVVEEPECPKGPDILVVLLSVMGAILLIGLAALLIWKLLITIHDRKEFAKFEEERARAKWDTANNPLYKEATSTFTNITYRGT

## N.N.[Cl][Pt][Cl] [Cisplatin, reference compound]
[1]; 10 mg/kg, Twice 1 week
  Rate of inhibiting tumors: 70.74%
[2]; 10 mg/kg, Twice 1 week
  Final weight: 22.19 g
  Rate of inhibiting tumors: 76.13%
  Tumor weight: 0.302 g
[3]; 10 mg/kg, Twice a week
  Rate of inhibiting tumors: 70.60%
[4]; 10 mg/kg
  influence on the weight of experimental animals: significantly affects the weight
[4]; 10 mg/kg, Twice 1 week
  Final weight: 22.33 g
  Rate of inhibiting tumors: 73.36%
  Tumor weight: 0.320 g

## O=P1(N(CCCl)CCCl)NCCCO1 (stereo not drawn) [Cyclophosphamide]
[5]; 15 mg/kg, Once 2 days
  Final weight: 23.85 g
  Rate of inhibiting tumors: 74.15%
  Tumor weight: 0.501 g

## CC[C@H](C)[C@H](N)C(=O)N[C@H](C(=O)N[C@@H](CCCNC(=N)N)C(=O)N[C@@H](CCCNC(=N)N)C(=O)N[C@@H](C)C(=O)N[C@@H](CC(=O)O)C(=O)N[C@@H](CCCNC(=N)N)C(=O)N[C@@H](C)C(=O)N[C@@H](C)C(=O)N[C@H](C(=O)N1CCC[C@H]1C(=O)NCC(=O)NCC(=O)NCC(=O)NCC(=O)N[C@@H](CCCNC(=N)N)C(=O)NCC(=O)N[C@@H](CC(=O)O)C(=O)O)C(C)C)C(C)C [HM-3, Ile-Val-Arg-Arg-Ala-Asp-Arg-Ala-Ala-Val-Pro-Gly-Gly-Gly-Gly-Arg-Gly-Asp] (H-IVRRADRAAVPGGGGRGD-OH; N-terminus assumed)
[6]; 1.5 mg/kg, Once 3 days
  Final weight: 22.30 g
  Rate of inhibiting tumors: 50.49%
  Tumor weight: 0.504 g
[7]; 1.5 mg/kg, Once 3 days
  Final weight: 23.54 g
  Rate of inhibiting tumors: 57.14%
  Tumor weight: 0.533 g
[8]; 1.5 mg/kg, Once 3 days
  Final weight: 23.86 g
  Rate of inhibiting tumors: 57.25%
  Tumor weight: 0.528 g
[9]; 1.5 mg/kg, Once 3 days
  Final weight: 25.15 g
[1]; 1.5 mg/kg, Once 3 days
  Rate of inhibiting tumors: 59.40%
  Tumor weight: 0.82 g
[2]; 1.5 mg/kg, Once 3 days
  Rate of inhibiting tumors: 49.49%
  Tumor weight: 0.639 g
[10]; 1.5 mg/kg, Once 3 days
  Final weight: 22.37 g
  Rate of inhibiting tumors: 70.40%
  Tumor weight: 0.214 g
[5]; 1.5 mg/kg, Once 3 days
  Rate of inhibiting tumors: 59.24%
  Tumor weight: 0.790 g
[11]; 1.5 mg/kg, Once 3 days
  Final weight: 20.88 g
  Rate of inhibiting tumors: 54.77%
  Tumor weight: 0.427 g
[12]; SD rats, intravenous
  AUC0-∞: 25.63 mg/L/h
  t1/2p: 27.66 min
  t1/2β: 27.6 min
[12]; both, SD, rat, plasma, iv
  clearance: 23 mL/min/kg
  half-life: 27.6 min
[12]; both, SD, rat, plasma, iv, MRT0-∞, SD rats
  MRT inf: 2.16 min
[13]; 1.5 mg/kg, Once 3 days
  Final weight: 21.11 g
  Rate of inhibiting tumors: 65.42%
  Tumor weight: 0.274 g
[14]; 1.5 mg/kg
  Final weight: 22.70 g
  Rate of inhibiting tumors: 57.70%
  Tumor weight: 0.530 g
[3]; 1.5 mg/kg, Once 3 days
  Final weight: 23.64 g
  Rate of inhibiting tumors: 56.36%
  Tumor weight: 0.809 g
[15]; 1.5 mg/kg, Once 3 days
  Final weight: 23.10 g
  Rate of inhibiting tumors: 57.94%
  Tumor weight: 0.582 g
[16]; 1.5 mg/kg, Once 3 days
  Final weight: 22.85 g
  Rate of inhibiting tumors: 54.49%
  Tumor weight: 0.550 g
[17]; 1.5 mg/kg, Once 3 days
  Final weight: 23.15 g
  Rate of inhibiting tumors: 52.59%
  Tumor weight: 0.531 g
[18]; 1.5 mg/kg, Once 3 days
  Rate of inhibiting tumors: 60.57%
  Tumor weight: 0.365 g
[19]
  time of administration at which antibody appeared: third week
[20]; 1.5 mg/kg, Once 3 days
  Final weight: 20.92 g
  Rate of inhibiting tumors: 57.59%
  Tumor weight: 0.450 g
[4]; 1.5 mg/kg, Once 3 days
  Final weight: 22.85 g
  Rate of inhibiting tumors: 61.03%
  Tumor weight: 0.468 g

## CC(=O)O[C@H]1C(=O)[C@@]2(C)[C@H]([C@H](OC(=O)c3ccccc3)[C@]3(O)C[C@H](OC(=O)[C@H](O)[C@@H](NC(=O)c4ccccc4)c4ccccc4)C(C)=C1C3(C)C)[C@]1(OC(C)=O)CO[C@@H]1C[C@@H]2O [Taxol, reference compound]
[6]; 10 mg/kg, Once 2 days
  Final weight: 21.65 g
  Rate of inhibiting tumors: 67.88%
  Tumor weight: 0.327 g
[7]; 10 mg/kg, Once 2 days
  Final weight: 23.32 g
  Rate of inhibiting tumors: 73.05%
  Tumor weight: 0.335 g
[8]; 10 mg/kg, Once 2 days
  Final weight: 23.47 g
  Rate of inhibiting tumors: 65.37%
  Tumor weight: 0.428 g
[9]; 10 mg/kg, Twice 1 week
  Final weight: 24.46 g
[1]; 10 mg/kg, Twice 1 week
  Rate of inhibiting tumors: 70.74%
  Tumor weight: 0.590 g
[10]; 10 mg/kg, Once 2 days
  Final weight: 22.05 g
  Rate of inhibiting tumors: 74.12%
  Tumor weight: 0.187 g
[11]; 10 mg/kg, Once 2 days
  Final weight: 21.15 g
  Rate of inhibiting tumors: 74.32%
  Tumor weight: 0.242 g
[13]; 10 mg/kg, Once 2 days
  Final weight: 19.58 g
  Rate of inhibiting tumors: 68.77%
  Tumor weight: 0.248 g
[3]; 10 mg/kg, Twice a week
  Final weight: 23.81 g
  Rate of inhibiting tumors: 70.60%
  Tumor weight: 0.545 g
[16]; 10 mg/kg, Twicw 1 week
  Final weight: 22.19 g
  Rate of inhibiting tumors: 75.55%
  Tumor weight: 0.295 g
[17]; 10 mg/kg, Once 2 days
  Final weight: 22.84 g
  Rate of inhibiting tumors: 69.11%
  Tumor weight: 0.346 g
[18]; 10 mg/kg, Once 2 days
  Rate of inhibiting tumors: 70.19%
  Tumor weight: 0.276 g
[20]; 10 mg/kg, Once 2 days
  Final weight: 20.43 g
  Rate of inhibiting tumors: 78.13%
  Tumor weight: 0.232 g

## O=c1[nH]cc(F)c(=O)[nH]1 [5-Fu, reference compound]
[14]; 10 mg/kg
  toxicity in experimental animals: greater toxicity and leads to the weight loss and death
  Final weight: 21.32 g
  Rate of inhibiting tumors: 74.50%
  Tumor weight: 0.320 g
[15]; 10 mg/kg, Once 1 day
  Final weight: 22.43 g
  Rate of inhibiting tumors: 76.68%
  Tumor weight: 0.323 g

B1: mPEG-SC20k-Ile-Val-Arg-Arg-Ala-Asp-Arg-Ala-Ala-Val-Pro-Gly-Gly-Gly-Gly-Arg-Gly-Asp (mPEG-SC20k-HM-3) (peptide)
peptide: {mPEG‑SC20k}-IVRRADRAAVPGGGGRGD
modifications: also: FITC labeled, site not given here
notes: also called integrin antagonist polypeptide
Integrin α5β1
  binding result: binds
Integrin ανβ3
  binding result: binds
